The source of these data is patent US5001118A, “Method for preventing senescence and increasing bone mass” (priority 1986, dated 1991).

Test [1] concerns rats. Put plainly: Lifelong administration to rats (general statement on bone). Format: in vivo, rat. The text has this:
One aspect of the present invention has been perfected based on the above findings. […] These findings are literally epochal in the light of the fact that the conventional pharmaceutical compositions for adjusting bone metabolism is found to be only capable of restoring bones having abnormality due to morbidity near to normality.

The subject of test [2] is osteoporosis. In words: Activity on bones found by the inventors (general statement).
Where [3] appears, read: lifelong administration to rats.

With `C=C1CC[C@H](O)C/C1=C/C=C1\CCC[C@]2(C)[C@@H]([C@H](C)CCC(O)C(C)(C)O)CC[C@@H]12` (stereo partly shown) [24,25-(OH)2 -D3, 24,25-dihydroxy cholecalciferol], in test [1] (setting [3]), the bone quality result was “without affecting the bone quality” and the bone volume entry is “increasing bone volume”. For the same compound, in test [1] (normal mammal, extension of the lifelong rat experiment), the “bone strength vs non-administered normal mammals” value is “clearly surpassing the average bone strength of non-administered normal mammals”. Moreover, the activity on osteoporosis result in test [2] is given as “activity of preventing osteoporosis”.
